Reference: patent US20250135038A1, “COMPOSITIONS AND METHODS FOR IMPROVED TREATMENT OF POMPE DISEASE” (Astellas Gene Therapies, Inc., priority 2022, published 2025)

Test system: liver transaminases (ALT, AST) and bilirubin
Assay: Longitudinal monitoring of liver transaminases (ALT, AST) and bilirubin, relative to prednisolone prophylaxis
Assay type: in vivo, human
Source text: Abbreviations: L, liter; U/L, units per liter; […], upper limit of normal.
Liver transaminases and bilirubin were also monitored over time for patients 2002, 2003, and 2009 (FIG. 11-13).

C[C@]12C=CC(=O)C=C1CC[C@@H]1[C@@H]2C(=O)C[C@@]2(C)[C@H]1CC[C@]2(O)C(=O)CO [prednisone]
Liver function parameters (Patient 2002 (3×10^13 vg/kg), reduced dose of prophylactic prednisone, throughout steroid tapering and >1 year follow up): remained within the normal range

C[C@]12C=CC(=O)C=C1CC[C@@H]1[C@@H]2[C@@H](O)C[C@@]2(C)[C@H]1CC[C@]2(O)C(=O)CO [prednisolone]
Prophylaxis of liver syndromes associated with GAA gene therapy (combination of the viral vector and an anti-transaminitis agent (e.g., prednisolone), conclusion of Example 1): can serve as a prophylactic treatment for liver syndromes | Response of the rise in transaminases to re-initiation of corticosteroid treatment (participant 2001, after AAV vector 3×10^13 vg/kg): responded well | Response of transaminitis to steroid schedule (participant 2003, after AAV vector 6×10^13 vg/kg): responsive to a slowing in the steroid tapering schedule and a small increment in steroid dose | Response of transaminitis to steroid schedule (participant 2009, after AAV vector 6×10^13 vg/kg): responsive to a slowing in the steroid tapering schedule
